Experimental data: patent US20050282743A1, “Molecular interactions in cells” (Arbor Vita Corporation, priority 2001, published 2005)
Each block holds one compound with its values, some of them ahead of it. Ends that are not written are not given here. Peptide text beside a SMILES is read from it. * marks the point of attachment. Biotin = O=C1N[C@H]2[C@H](CS[C@H]2CCCCC(=O)*)N1

Assays:
Test in all cases: G' assay (10 uM PL peptide), results of TABLE 7 and TABLE 12
Assay type in all cases: binding
[1] = target: T1, PDZ protein (GST-PDZ fusion) (Homo sapiens, UniProt O15021); conditions: PDZ KIAA0303, PDZ Domain 1
T1 construct: made in house; host or cells: E. coli (DH5alpha, BL21 or JM109)
In short: (§1)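 Biotin-PL peptide (N-term label), 10 uM vs GST-PDZ; protein 5 ug/ml by default. A450 nm binned: 1 = 0-1, 2 = 1-2, 3 = 2-3, 4 = 3-4, 5 = >4 on >2 repeats, 0 = no binding.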

[2] = target: T2, PDZ protein (GST-PDZ fusion) (Homo sapiens, UniProt P53667); conditions: PDZ LIMK1, PDZ Domain 1
T2 construct: made in house; host or cells: E. coli (DH5alpha, BL21 or JM109)
In short: as §1

[3] = target: T3, PDZ protein (GST-PDZ fusion) (Rattus norvegicus, UniProt Q9JLU4); conditions: PDZ rat SHANK 3, PDZ Domain 1
T3 construct: made in house; host or cells: E. coli (DH5alpha, BL21 or JM109)
In short: as §1

[4] = target: T4, PDZ protein (GST-PDZ fusion) (Homo sapiens, UniProt Q9BXL6); conditions: PDZ CARD14, PDZ Domain 1
T4 construct: made in house; host or cells: E. coli (DH5alpha, BL21 or JM109)
T4 sequence (Q9BXL6 1-1004): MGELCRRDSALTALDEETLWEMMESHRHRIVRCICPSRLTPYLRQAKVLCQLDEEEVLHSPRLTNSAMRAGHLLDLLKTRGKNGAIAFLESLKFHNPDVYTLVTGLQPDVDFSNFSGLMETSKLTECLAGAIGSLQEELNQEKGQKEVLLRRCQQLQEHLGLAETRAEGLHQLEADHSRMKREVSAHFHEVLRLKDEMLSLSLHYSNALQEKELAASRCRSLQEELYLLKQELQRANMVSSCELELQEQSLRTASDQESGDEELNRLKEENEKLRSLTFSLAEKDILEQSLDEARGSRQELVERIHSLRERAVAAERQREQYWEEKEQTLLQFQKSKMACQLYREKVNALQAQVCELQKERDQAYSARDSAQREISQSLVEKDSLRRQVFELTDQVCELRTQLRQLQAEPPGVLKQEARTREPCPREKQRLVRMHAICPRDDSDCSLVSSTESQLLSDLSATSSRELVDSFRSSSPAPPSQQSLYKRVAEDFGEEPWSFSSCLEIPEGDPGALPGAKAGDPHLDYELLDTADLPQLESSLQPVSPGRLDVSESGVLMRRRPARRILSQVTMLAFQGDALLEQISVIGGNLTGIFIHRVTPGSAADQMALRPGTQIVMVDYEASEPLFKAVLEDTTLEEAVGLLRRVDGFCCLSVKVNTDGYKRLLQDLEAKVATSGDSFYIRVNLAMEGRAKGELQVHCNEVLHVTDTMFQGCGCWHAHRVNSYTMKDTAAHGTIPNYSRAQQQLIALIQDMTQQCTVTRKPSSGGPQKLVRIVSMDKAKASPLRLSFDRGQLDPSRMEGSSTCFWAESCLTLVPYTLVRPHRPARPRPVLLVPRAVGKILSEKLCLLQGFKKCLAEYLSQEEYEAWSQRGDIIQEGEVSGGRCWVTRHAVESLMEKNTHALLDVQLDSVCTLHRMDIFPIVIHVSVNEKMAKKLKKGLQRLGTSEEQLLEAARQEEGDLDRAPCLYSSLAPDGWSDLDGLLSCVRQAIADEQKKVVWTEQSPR
In short: as §1

T1 sequence (O15021 whole entry, the tested form may be a part): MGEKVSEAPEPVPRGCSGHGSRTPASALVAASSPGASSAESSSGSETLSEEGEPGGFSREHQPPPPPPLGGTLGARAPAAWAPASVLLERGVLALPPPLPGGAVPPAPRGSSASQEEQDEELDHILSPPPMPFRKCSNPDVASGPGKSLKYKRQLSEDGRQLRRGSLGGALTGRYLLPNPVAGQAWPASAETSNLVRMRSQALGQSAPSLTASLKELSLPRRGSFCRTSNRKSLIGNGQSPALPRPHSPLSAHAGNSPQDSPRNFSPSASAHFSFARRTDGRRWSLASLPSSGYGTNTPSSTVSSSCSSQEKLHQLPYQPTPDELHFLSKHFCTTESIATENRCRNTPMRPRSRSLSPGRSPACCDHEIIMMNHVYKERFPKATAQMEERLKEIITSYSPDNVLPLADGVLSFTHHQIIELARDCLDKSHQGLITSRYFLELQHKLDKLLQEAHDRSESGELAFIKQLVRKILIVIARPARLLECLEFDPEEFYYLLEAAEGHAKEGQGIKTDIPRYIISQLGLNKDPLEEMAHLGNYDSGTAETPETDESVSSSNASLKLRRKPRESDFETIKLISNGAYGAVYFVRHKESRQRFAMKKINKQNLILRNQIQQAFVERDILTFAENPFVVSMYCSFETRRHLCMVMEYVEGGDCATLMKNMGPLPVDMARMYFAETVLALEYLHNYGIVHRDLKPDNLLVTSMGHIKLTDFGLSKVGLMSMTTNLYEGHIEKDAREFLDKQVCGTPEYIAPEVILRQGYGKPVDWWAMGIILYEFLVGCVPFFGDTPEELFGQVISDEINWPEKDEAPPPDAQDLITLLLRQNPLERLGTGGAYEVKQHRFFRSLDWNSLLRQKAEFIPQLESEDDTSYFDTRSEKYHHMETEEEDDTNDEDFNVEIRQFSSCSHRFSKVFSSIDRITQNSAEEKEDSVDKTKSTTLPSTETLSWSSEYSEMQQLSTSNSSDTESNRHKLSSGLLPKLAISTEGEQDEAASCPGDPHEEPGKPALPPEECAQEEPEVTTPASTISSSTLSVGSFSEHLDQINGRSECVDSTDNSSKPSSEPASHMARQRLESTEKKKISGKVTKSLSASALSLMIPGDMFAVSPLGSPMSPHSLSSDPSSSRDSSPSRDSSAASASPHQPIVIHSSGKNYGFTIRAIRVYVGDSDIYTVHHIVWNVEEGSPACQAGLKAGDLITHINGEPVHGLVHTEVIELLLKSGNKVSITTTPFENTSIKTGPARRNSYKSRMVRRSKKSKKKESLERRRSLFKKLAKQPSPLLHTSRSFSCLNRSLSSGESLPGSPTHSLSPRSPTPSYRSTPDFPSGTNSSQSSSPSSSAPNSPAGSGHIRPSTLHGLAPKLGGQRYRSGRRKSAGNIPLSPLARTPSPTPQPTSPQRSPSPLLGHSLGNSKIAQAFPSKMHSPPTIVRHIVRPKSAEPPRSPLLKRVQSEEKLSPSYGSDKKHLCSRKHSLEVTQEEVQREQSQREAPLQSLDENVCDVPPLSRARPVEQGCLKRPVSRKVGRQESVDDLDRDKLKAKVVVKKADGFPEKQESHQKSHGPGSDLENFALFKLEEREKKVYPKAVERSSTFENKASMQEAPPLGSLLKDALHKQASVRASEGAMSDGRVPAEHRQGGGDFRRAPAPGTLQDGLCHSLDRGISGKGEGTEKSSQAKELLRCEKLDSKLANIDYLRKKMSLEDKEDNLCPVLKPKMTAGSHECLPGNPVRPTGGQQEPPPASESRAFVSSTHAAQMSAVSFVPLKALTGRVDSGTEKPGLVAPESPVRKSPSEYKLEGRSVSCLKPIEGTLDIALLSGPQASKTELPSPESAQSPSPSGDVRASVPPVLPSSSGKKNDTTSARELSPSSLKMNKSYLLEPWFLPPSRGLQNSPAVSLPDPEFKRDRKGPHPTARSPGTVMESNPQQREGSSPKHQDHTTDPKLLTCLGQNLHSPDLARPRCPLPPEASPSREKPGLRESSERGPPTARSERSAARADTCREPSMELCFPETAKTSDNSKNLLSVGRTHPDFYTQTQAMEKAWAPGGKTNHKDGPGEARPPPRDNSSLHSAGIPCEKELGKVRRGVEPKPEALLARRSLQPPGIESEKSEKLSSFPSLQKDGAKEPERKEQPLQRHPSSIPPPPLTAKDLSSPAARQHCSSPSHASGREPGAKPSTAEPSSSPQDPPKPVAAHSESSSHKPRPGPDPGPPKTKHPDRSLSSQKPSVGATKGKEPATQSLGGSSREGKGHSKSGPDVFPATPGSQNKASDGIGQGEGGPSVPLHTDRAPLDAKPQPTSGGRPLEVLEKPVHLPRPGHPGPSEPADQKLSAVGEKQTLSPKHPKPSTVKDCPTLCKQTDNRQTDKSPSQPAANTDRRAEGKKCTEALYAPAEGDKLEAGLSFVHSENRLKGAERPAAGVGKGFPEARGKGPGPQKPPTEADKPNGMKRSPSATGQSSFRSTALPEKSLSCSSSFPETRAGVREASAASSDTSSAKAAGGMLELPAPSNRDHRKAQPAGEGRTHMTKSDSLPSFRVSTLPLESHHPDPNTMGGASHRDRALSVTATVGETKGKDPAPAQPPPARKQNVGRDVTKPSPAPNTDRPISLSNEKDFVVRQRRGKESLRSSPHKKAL
T2 sequence (P53667 whole entry, the tested form may be a part): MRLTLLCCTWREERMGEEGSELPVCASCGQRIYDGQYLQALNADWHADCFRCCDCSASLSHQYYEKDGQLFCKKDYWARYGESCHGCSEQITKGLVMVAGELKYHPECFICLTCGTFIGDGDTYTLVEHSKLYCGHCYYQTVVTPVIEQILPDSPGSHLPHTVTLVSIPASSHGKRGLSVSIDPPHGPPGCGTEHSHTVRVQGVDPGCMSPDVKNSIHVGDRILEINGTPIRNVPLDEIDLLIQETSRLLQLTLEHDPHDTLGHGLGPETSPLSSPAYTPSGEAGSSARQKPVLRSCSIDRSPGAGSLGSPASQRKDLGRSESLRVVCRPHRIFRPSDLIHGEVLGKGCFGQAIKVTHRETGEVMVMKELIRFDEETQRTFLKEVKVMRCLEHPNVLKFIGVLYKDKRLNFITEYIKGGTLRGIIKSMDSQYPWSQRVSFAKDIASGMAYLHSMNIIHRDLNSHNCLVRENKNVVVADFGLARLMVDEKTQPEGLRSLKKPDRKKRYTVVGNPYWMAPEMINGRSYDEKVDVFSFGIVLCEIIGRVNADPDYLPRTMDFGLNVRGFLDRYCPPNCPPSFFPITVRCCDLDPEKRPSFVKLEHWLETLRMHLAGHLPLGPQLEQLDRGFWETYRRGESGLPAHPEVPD
T3 sequence (Q9JLU4 whole entry, the tested form may be a part): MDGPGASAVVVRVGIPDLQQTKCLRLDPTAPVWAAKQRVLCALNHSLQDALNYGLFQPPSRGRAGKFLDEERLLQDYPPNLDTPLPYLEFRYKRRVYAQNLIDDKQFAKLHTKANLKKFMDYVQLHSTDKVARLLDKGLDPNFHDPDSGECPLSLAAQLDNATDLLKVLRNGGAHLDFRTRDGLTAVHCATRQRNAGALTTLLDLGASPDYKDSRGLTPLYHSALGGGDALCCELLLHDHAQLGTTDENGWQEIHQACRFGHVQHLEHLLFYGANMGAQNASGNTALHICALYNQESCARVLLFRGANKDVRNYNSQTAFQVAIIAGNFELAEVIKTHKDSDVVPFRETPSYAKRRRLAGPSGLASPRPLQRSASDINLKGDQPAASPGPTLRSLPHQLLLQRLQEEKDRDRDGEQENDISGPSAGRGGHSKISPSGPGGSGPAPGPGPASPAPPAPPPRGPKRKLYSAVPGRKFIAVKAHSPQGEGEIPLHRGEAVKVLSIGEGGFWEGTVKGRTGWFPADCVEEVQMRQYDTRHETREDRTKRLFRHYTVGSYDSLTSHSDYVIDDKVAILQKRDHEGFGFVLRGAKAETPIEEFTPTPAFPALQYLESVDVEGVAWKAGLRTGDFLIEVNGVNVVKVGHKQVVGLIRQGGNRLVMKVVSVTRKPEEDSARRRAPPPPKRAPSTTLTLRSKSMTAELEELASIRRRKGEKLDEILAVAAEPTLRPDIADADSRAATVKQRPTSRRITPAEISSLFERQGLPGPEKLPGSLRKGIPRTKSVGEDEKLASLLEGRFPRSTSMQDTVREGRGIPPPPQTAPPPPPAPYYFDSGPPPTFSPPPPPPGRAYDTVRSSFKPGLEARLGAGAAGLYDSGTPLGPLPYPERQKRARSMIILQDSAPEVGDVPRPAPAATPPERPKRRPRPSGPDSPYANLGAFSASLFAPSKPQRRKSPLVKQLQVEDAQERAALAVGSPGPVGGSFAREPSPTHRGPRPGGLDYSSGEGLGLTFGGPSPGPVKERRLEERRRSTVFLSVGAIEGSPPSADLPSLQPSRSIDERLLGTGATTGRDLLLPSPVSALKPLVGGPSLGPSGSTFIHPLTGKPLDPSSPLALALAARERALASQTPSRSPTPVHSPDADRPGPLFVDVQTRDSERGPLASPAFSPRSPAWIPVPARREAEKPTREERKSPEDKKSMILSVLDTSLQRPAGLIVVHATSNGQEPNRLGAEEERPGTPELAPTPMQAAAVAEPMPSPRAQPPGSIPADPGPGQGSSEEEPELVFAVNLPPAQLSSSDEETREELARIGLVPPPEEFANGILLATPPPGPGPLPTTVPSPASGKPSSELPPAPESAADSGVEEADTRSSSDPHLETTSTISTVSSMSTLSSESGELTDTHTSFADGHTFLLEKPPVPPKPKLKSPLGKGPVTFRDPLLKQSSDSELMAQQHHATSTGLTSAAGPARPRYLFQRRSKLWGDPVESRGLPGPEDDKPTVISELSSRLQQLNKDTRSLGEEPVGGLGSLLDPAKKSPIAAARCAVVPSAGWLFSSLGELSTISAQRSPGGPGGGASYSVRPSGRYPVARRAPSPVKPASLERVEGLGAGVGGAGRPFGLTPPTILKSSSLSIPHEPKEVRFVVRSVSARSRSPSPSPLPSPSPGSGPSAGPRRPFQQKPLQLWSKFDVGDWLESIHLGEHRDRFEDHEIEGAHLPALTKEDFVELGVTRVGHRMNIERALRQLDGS

Compound: CC[C@H](C)[C@H](NC(=O)[C@H](CO)NC(=O)[C@@H](NC(=O)[C@H](Cc1ccccc1)NC(=O)[C@H](CO)NC(=O)CCCC[C@@H]1SC[C@@H]2NC(=O)N[C@@H]21)[C@@H](C)O)C(=O)N[C@@H](CC(C)C)C(=O)N[C@H](C(=O)N[C@@H](CS)C(=O)N[C@@H](Cc1c[nH]cn1)C(=O)N[C@@H](CCC(N)=O)C(=O)N[C@@H](CCCNC(=N)N)C(=O)N[C@@H](CCCNC(=N)N)C(=O)N[C@H](C(=O)N[C@@H](CCC(N)=O)C(=O)N[C@@H](CCCNC(=N)N)C(=O)N[C@@H](CCCCN)C(=O)N[C@@H](CCC(=O)O)C(=O)N[C@H](C(=O)N[C@H](C(=O)N[C@@H](C)C(=O)O)C(C)C)[C@@H](C)O)[C@@H](C)O)[C@@H](C)O [GluR5-2 (rat)]
- Classification [1]: 1 (A450 nm 0-1)

Compound: CSCC[C@H](NC(=O)[C@H](C)NC(=O)[C@H](CCCNC(=N)N)NC(=O)CNC(=O)[C@@H](NC(=O)[C@H](Cc1c[nH]c2ccccc12)NC(=O)[C@H](CCCNC(=N)N)NC(=O)CNC(=O)CCCC[C@@H]1SC[C@@H]2NC(=O)N[C@@H]21)[C@@H](C)O)C(=O)N[C@@H](CO)C(=O)N[C@@H](C)C(=O)N[C@@H](Cc1c[nH]c2ccccc12)C(=O)N[C@@H](CCCCN)C(=O)N1CCC[C@H]1C(=O)N[C@H](C(=O)N[C@@H](CCCNC(=N)N)C(=O)N[C@@H](CCCNC(=N)N)C(=O)N[C@@H](CCC(=O)O)C(=O)N[C@H](C(=O)N[C@@H](CCC(=O)O)C(=O)N[C@H](C(=O)O)C(C)C)[C@@H](C)O)[C@@H](C)O [HPV E6 #35 (modified)] (Biotin-GRWTGRAMSAWKPTRRETEV-OH; C-terminus assumed)
- Classification [2]: 1 (A450 nm 0-1)

Compound: CC[C@H](C)[C@H](NC(=O)[C@H](CCC(N)=O)NC(=O)CCCC[C@@H]1SC[C@@H]2NC(=O)N[C@@H]21)C(=O)N[C@@H](CO)C(=O)N1CCC[C@H]1C(=O)NCC(=O)NCC(=O)N[C@@H](CC(C)C)C(=O)N[C@@H](CCC(=O)O)C(=O)N1CCC[C@H]1C(=O)N1CCC[C@H]1C(=O)N[C@@H](CO)C(=O)N[C@@H](CCC(=O)O)C(=O)N[C@@H](CCCCN)C(=O)N[C@@H](Cc1c[nH]cn1)C(=O)N[C@@H](Cc1ccccc1)C(=O)N[C@@H](CCCNC(=N)N)C(=O)N[C@@H](CCC(=O)O)C(=O)N[C@H](C(=O)N[C@@H](CCC(=O)O)C(=O)N[C@H](C(=O)O)C(C)C)[C@@H](C)O [Tax]
- Classification [2]: 1 (A450 nm 0-1)

- Classification [3]: 1 (A450 nm 0-1)
Compound: CC(C)C[C@H](NC(=O)[C@H](CC(=O)O)NC(=O)[C@H](CO)NC(=O)[C@H](CCC(=O)O)NC(=O)CNC(=O)[C@H](Cc1ccc(O)cc1)NC(=O)[C@H](CC(C)C)NC(=O)[C@H](C)NC(=O)[C@H](CO)NC(=O)[C@H](CO)NC(=O)[C@H](Cc1ccccc1)NC(=O)[C@H](C)NC(=O)[C@H](C)NC(=O)[C@H](Cc1ccc(O)cc1)NC(=O)[C@H](CC(=O)O)NC(=O)[C@H](CC(C)C)NC(=O)[C@H](C)NC(=O)CNC(=O)[C@@H]1CCCN1C(=O)[C@@H](NC(=O)CCCC[C@@H]1SC[C@@H]2NC(=O)N[C@@H]21)C(C)C)C(=O)O [a-actinin 2] (Biotin-VPGALDYAAFSSALYGESDL-OH; C-terminus assumed)

- Classification [4]: 1 (A450 nm 0-1)
Compound: A2AA_HUMAN (modified) (Biotin-HDFRRAFKKILARGDRKRIV; not fully specified)

- Classification [4]: 5 (A450 nm of 4 more than 2× repeated)
Compound: A2AC_HUMAN (Modified) (Biotin-DFRPSFKHILFRRARRGFRQ; not fully specified)

- Classification [1]: 1 (A450 nm 0-1)
Compound: ELLQFCRTPNPALKNGQYWV (Biotin-ELLQFCRTPNPALKNGQYWV)

- Classification [3]: 4 (A450 nm 3-4)
Compound: PPATPSPRLALPAHHNATRL (Biotin-PPATPSPRLALPAHHNATRL) [Na+/Pi cotransporter 2]
